{"source": "patent US20030032636A1", "about": "“Combination of a serotonin reuptake inhibitor and a 5-HT2C antagonist, inverse agonist or partial agonist” (H. Lundbeck A/S, priority 1999, published 2003)", "key": {"5-HT2C receptors": {"system": "5-HT2C receptors", "conditions": "cited from earlier work"}, "[1]": {"system": "levels of DA, NE and 5-HT in rat frontal cortex", "conditions": "cited from earlier work"}, "5-HT2C receptor": {"target": "T1, 5-HT2C receptor (Rattus norvegicus, UniProt P08909)", "T1 construct": "host or cells: SR-3T3 cells", "T1 sequence (P08909 33-460)": "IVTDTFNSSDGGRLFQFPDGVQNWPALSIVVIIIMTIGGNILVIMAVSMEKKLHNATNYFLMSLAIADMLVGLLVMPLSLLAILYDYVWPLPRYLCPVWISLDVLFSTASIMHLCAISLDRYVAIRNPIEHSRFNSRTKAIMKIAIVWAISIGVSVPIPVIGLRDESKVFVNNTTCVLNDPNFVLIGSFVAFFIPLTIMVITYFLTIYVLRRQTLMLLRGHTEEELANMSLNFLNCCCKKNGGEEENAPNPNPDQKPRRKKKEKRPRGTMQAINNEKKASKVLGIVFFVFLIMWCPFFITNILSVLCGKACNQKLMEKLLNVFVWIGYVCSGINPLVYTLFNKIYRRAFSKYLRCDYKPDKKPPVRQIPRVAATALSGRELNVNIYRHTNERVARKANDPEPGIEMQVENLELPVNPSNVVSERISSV", "experiment": "5-HT2C binding (3H-Mesulergine, SR-3T3 cells)", "conditions": "0.5 nM 3H-Mesulergine", "method": "The cell suspension is centrifuged and the pellet resuspended in 50 mM Tris, HCl, pH 7.7 and stored at −80° C. For experimental use, the frozen cell pellet is thawed and homogenised with an Ultra Turrax for 10-15 seconds. 1.5 mg cell preparation is incubated with 0.5 nM 3H-Mesulergine for 60 minutes at 37° C. Incubation is terminated by rapid filtration through Filtermat B filters and bound radioactivity is determined in a Tricarb scintillation counter."}, "[2]": {"system": "5-HT levels in rat ventral hippocampus", "experiment": "Microdialysis, ventral hippocampus 5-HT levels", "type": "in vivo", "conditions": "for enhancement of the effect of citalopram on ventral hippocampal 5-HT levels: 1 μmol/kg simultaneous with 10 μmol/kg citalopram; for serotonin levels as measured in microdialysis experiments: administered alone (summary statement); for effect on rat ventral hippocampal 5-HT levels: 1 μmol/kg subcutaneous; for level of extracellular serotonin: in combination with SSRIs (summary statement)", "text": "Male albino rats of a Wistar-derived strain (285-320 g; Harlan, Zeist, The Netherlands) were used for the experiments. The rats were housed in plastic cages (35×35×40 cm), and had free access to food and water. The experiments are concordant with the declarations of Helsinki and were approved by the Animal Care Committee of the Faculty of Mathematics and Natural Science of the University of Groningen.\nThe following drugs were used: Citalopram hydrobromide and internal standard (kindly donated by Lundbeck (Copenhagen, Denmark), courtesy Dr. Sanchez), ritanserin and ketanserin tartrate (RBI, Natick, USA). […] All drugs were administered in a volume of 1 mL per kg.\nMicrodialysis experiments were performed using home made I-shaped probes, made of polyacrylonitrile I sodium methyl sulphonate copolymer dialysis fiber (i.d. 220 μm, o.d. […], AN 69, Hospal, Italy). The exposed length of the membranes was 4 mm. […] Lidocaine-HCl, 10% (m/v) was used for local anaesthesia. Rats were placed in a stereotaxic frame (Kopf, USA), and probes were inserted into the ventral hippocampus (coordinates: IA: +3.7 mm, lateral: +4.8 mm, ventral: −8.0 mm from the dura mater, Paxinos and Watson, 1982) and secured with dental cement.\nProbes were perfused with artificial CSF containing 147 mM NaCl, 3.0 mM KCl, 1.2 mM CaCl2, and 1.2 mM MgCl2, at a flow-rate of 1.5 μL/min (Harvard apparatus, South Natick, Ma., USA). Samples were collected on-line in a 20 μL loop and injected automatically onto the column every 15 min.\nSerotonin analysis: 5-HT was analysed using HPLC with electrochemical detection. The HPLC pump (Shimadzu LC-10 AD liquid chromatograph) was connected to a reversed phase column (phenomenex hypersil 3: 3 μm, 100×2.0 mm, C18, Bester, Amstelveen, the Netherlands) followed by an electrochemical detector (Antec Leyden, Leiden, the Netherlands), working at a potential setting of 500 mV vs. Ag/AgCl reference. The mobile phase consisted of 5 g/L di-ammoniumsulfate, 500 mg/L ethylene diamino tetra acetic acid (EDTA), 50 mg/L heptane sulphonic acid and 30 μl/L of triethylamine, at a pH of 4.65 and 4.5% (w/w) methanol and water. Flow-rate of the mobile phase was 0.4 ml/min. The detection limit was 0.5 fmol 5-HT per 20 μL sample (signal to noise ratio 3).\nLevel of significance level was set at p<0. 05."}, "[3]": {"conditions": "combined with fluoxetine; cited from earlier work"}, "[4]": {"system": "NE release in rat hippocampus", "conditions": "cited from earlier work"}, "[5]": {"system": "mouse forced swimming test", "conditions": "prior administration; ritanserin 4 mg/kg i.p., ketanserin 8 mg/kg i.p.; cited from earlier work"}, "in vivo": {"experiment": "in vivo", "conditions": "rat, sc", "quoted_text": "In the pharmacokinetic experiments, blood was drawn through a canula made of silicon tubing, which was inserted into the right jugular vein for 3.8 cm. The tubing was transferred subcutaneously to the scull of the rat, and a stainless steel inlet was connected to the tubing. The inlet was mounted on the skull with dental cement and surgical screws. After insertion, canulas were filled with a PVP solution (55% polyvinylpyrrolidon in 500 IE/mL heparin) in saline to prevent blood clotting.\nPharmacokinetic experiments: Rats were allowed to recover for at least 24 h. […]\nCitalopram analysis: Citalopram was measured according to Øyehaug et al. (1982), with minor modifications. […]\nWith the experiments in which 5 mL plasma was obtained via the vacutainer, a similar protocol was used, but the plasma sample was now extracted three times with 10 mL of ether. An HPLC/auto-injector (1084B Liquid Chromatograph, Hewlett-Packard) was used, in combination with a fluorescence detector (470 Scanning Fluorescence detector, Waters, England) operating at an absorption wavelength of 240 nm, an emission wavelength of 296 nm, and a slit-width of 12 nm. […]\nKetanserin analysis: Ketanserin was measured using liquid-liquid extraction, followed by reversed phase chromatography in conjunction with fluorescence detection. […]"}, "[6]": {"system": "prefrontal cortex 5-HT levels", "experiment": "Microdialysis, prefrontal cortex 5-HT levels", "type": "in vivo, rat"}, "[7]": {"system": "morphine-induced DA release in rat nucleus accumbens", "conditions": "cited from earlier work"}}, "note": "pKi: −log10 of the molar value.", "data": [{"compound": "Fc1ccc([C@@H]2CCNC[C@H]2COc2ccc3c(c2)OCO3)cc1", "note": "[paroxetine]", "values": [{"measurement": "effect of chronic administration on 5-HT2C receptors", "setting": "5-HT2C receptors", "value": "functional desensitisation"}]}, {"compound": "Cc1cc2c(cc1Cl)N(C(=O)Nc1ccc(Oc3cccnc3C)nc1)CC2", "note": "[SB-242084]", "values": [{"measurement": "levels of both DA and NE", "setting": "[1]", "value": "increased"}, {"measurement": "levels of serotonin (5-HT)", "setting": "[1]", "value": "without modifying"}]}, {"compound": "COc1cc(OC)c(C(=O)CCCCN2CCC3(CC2)NC(=O)NC3=O)cc1NS(=O)(=O)c1ccc(C(F)(F)F)cc1", "note": "[RS 102221]", "values": [{"measurement": "pKi", "setting": "5-HT2C receptor", "value": 9.25}, {"measurement": "enhancement of the effect of citalopram on ventral hippocampal 5-HT levels", "setting": "[2]", "value": "significant enhancement of the effect of citalopram"}, {"measurement": "serotonin levels as measured in microdialysis experiments", "setting": "[2]", "value": "no increase"}, {"measurement": "effect on rat ventral hippocampal 5-HT levels", "setting": "[2]; alone", "value": "had no effect"}, {"measurement": "level of extracellular serotonin", "setting": "[2]", "value": "synergistically act to increase"}]}, {"compound": "CN1CCN2c3ccccc3Cc3ccccc3C2C1", "note": "(centres unmarked) [mianserin]", "values": [{"measurement": "efficacy of fluoxetine in the treatment of treatment resistant patients", "setting": "[3]", "value": "augment the efficacy of fluoxetine"}, {"measurement": "latency of onset of antidepressive effect", "setting": "[3]", "value": "may shorten the latency of onset"}]}, {"compound": "O=C1NCCN1CCN1CCN([C@@H]2C[C@@H](c3ccc(F)cc3)c3ccccc32)CC1", "note": "[irindalone]", "values": [{"measurement": "pKi", "setting": "5-HT2C receptor", "value": 7.72}]}, {"compound": "Cc1nc2sccn2c(=O)c1CCN1CCC(=C(c2ccc(F)cc2)c2ccc(F)cc2)CC1", "note": "[ritanserin]", "values": [{"measurement": "quipazine-induced decrease of NE release", "setting": "[4]", "value": "antagonised"}, {"measurement": "potentiation of the effects of imipramine and desipramine (16 mg/kg i.p.)", "setting": "[5]", "value": "potentiated"}, {"measurement": "augmentation of the effect of citalopram on ventral hippocampal 5-HT levels", "setting": "[2]; 10 μmol/kg i.p. given 60 minutes prior to 10 μmol/kg s.c. citalopram", "value": "augmented the effect of citalopram significantly"}, {"measurement": "effect on 5-HT levels in rat ventral hippocampus", "setting": "[2]; alone, 10 μmol/kg intraperitoneal", "value": "did not have any effect"}, {"measurement": "level of extracellular serotonin", "setting": "[2]", "value": "synergistically act to increase"}]}, {"compound": "O=C(c1ccc(F)cc1)C1CCN(CCn2c(=O)[nH]c3ccccc3c2=O)CC1", "note": "[ketanserin]", "values": [{"measurement": "pKi", "setting": "5-HT2C receptor", "value": 7.85}, {"measurement": "half-life", "setting": "in vivo; 100 nmol/kg", "value": "~1.5", "unit": "h"}, {"measurement": "potentiation of the effects of imipramine and desipramine (16 mg/kg i.p.)", "setting": "[5]", "value": "potentiated"}, {"measurement": "augmentation of the effect of citalopram on ventral hippocampal 5-HT levels", "setting": "[2]; 1 nmol/kg co-administered with 10 μmol/kg citalopram", "value": "did not augment the effect of citalopram"}, {"measurement": "augmentation of the effect of citalopram on ventral hippocampal 5-HT levels", "setting": "[2]; 10 nmol/kg co-administered with 10 μmol/kg citalopram", "value": "significantly enhanced the effect of citalopram"}, {"measurement": "augmentation of the effect of citalopram on ventral hippocampal 5-HT levels", "setting": "[2]; 100 nmol/kg co-administered with 10 μmol/kg citalopram", "value": "significantly enhanced the effect of citalopram"}, {"measurement": "enhancement of the effect of fluoxetine on ventral hippocampal 5-HT levels", "setting": "[2]; 100 nmol/kg simultaneous with 5 mg/kg fluoxetine", "value": "significant enhancement of the effect of fluoxetine"}, {"measurement": "serotonin levels as measured in microdialysis experiments", "setting": "[2]", "value": "no increase"}, {"measurement": "effect on ventral hippocampal 5-HT levels", "setting": "[2]; alone, 100 nmol/kg subcutaneous", "value": "had no effect"}, {"measurement": "augmentation of the SSRI induced increase in 5-HT levels, ventral hippocampus", "setting": "[2]; different doses, simultaneous with 10 μmol/kg citalopram", "value": "dose dependent augmentation"}, {"measurement": "level of extracellular serotonin", "setting": "[2]", "value": "synergistically act to increase"}, {"measurement": "augmentation of the citalopram induced increase in cortical 5-HT levels", "setting": "[6]; 1 nmol/kg co-administered with citalopram", "value": "did not augment"}, {"measurement": "augmentation of the citalopram induced increase in cortical 5-HT levels", "setting": "[6]; 10 nmol/kg co-administered with citalopram, effect did not reach significance", "value": "transiently enhanced the effect of citalopram"}, {"measurement": "augmentation of the citalopram induced increase in cortical 5-HT levels", "setting": "[6]; 100 nmol/kg simultaneous with citalopram", "value": "significant enhancement of the effect of citalopram"}, {"measurement": "effect on prefrontal cortex 5-HT levels", "setting": "[6]; alone, dose not stated", "value": "did not show any effect"}]}, {"compound": "CN(C)CCCC1(c2ccc(F)cc2)OCc2cc(C#N)ccc21", "note": "(centres unmarked) [citalopram]", "values": [{"measurement": "half-life", "setting": "in vivo; 10 umol/kg", "value": "~2", "unit": "h"}]}, {"compound": "Cc1ccc2c(c1)c(-c1ccc(F)cc1)c(C)n2C1CCN(CCN2CCNC2=O)CC1", "note": "[Lu 29066, 2,5-dimethyl-3-(4-fluorophenyl)-1-[1-[2-(imidazolidin-2-on-1-yl)ethyl]-piperidin-4-yl]-1H-indole]", "values": [{"measurement": "pKi", "setting": "5-HT2C receptor", "value": 8.16}, {"measurement": "enhancement of the effect of citalopram on ventral hippocampal 5-HT levels", "setting": "[2]", "value": "significant enhancement of the effect of citalopram"}, {"measurement": "serotonin levels as measured in microdialysis experiments", "setting": "[2]", "value": "no increase"}, {"measurement": "effect on rat ventral hippocampal 5-HT levels", "setting": "[2]; alone", "value": "had no effect"}, {"measurement": "level of extracellular serotonin", "setting": "[2]", "value": "synergistically act to increase"}]}, {"compound": "CCc1nn(CCCN2CCN(c3cccc(Cl)c3)CC2)c(=O)n1CCOc1ccccc1", "note": "[nefazodone]", "values": [{"measurement": "pKi", "setting": "5-HT2C receptor", "value": 7.48}]}, {"compound": "C[C@H](N)Cn1ccc2cc(F)c(Cl)cc21", "note": "[Ro 60-0175]", "values": [{"measurement": "levels of both DA and NE", "setting": "[1]", "value": "suppressed"}, {"measurement": "levels of serotonin (5-HT)", "setting": "[1]", "value": "without modifying"}]}, {"compound": "Clc1cncc(N2CCNCC2)n1", "note": "[MK-212]", "values": [{"measurement": "morphine-induced DA release", "setting": "[7]", "value": "inhibited"}]}]}
